Source: PubChem BioAssay AID330 (DTP/NCI, 2004)
Where “and” joins values, the source holds several entries; their conditions need not be identical. Equal entries are not always repeated. Inconclusive results and toxic doses are left out. The calls were made as follows: active = survival T/C of 150% or more; inactive = T/C below 125% in these data.

System: P388 leukemia ip, CD2F1 mice, survival T/C
Experiment: NCI In Vivo Anticancer Drug Screen. Data for tumor model P388 Leukemia (intraperitoneal) in CD2F1 (CDF1) mice
Details: endpoint: median survival time, higher = longer survival
Outline: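 Mice carrying the transplanted tumor received test compound or vehicle. Survival was recorded in each group, and the value is the treated-group measurement divided by that of the vehicle-treated control group.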

[1] = dose: 12.5 mg/kg/injection, schedule: Q01DX009 (ip), vehicle: saline with Tween-80
[2] = dose: 25.0 mg/kg/injection, schedule: Q01DX009 (ip), vehicle: saline with Tween-80
[3] = dose: 50.0 mg/kg/injection, schedule: Q01DX009 (ip), vehicle: saline with Tween-80
[4] = dose: 50.0 mg/kg/injection, schedule: Q01DX005 (ip), vehicle: saline with Tween-80
[5] = dose: 100.0 mg/kg/injection, schedule: Q01DX005 (ip), vehicle: saline with Tween-80
[6] = dose: 200.0 mg/kg/injection, schedule: Q01DX005 (ip), vehicle: saline with Tween-80
[7] = dose: 100.0 mg/kg/injection, schedule: Q01DX009 (ip), vehicle: saline with Tween-80
[8] = dose: 6.25 mg/kg/injection, schedule: Q01DX005 (ip), vehicle: saline with Tween-80
[9] = dose: 12.5 mg/kg/injection, schedule: Q01DX005 (ip), vehicle: saline with Tween-80
[10] = dose: 25.0 mg/kg/injection, schedule: Q01DX005 (ip), vehicle: saline with Tween-80

Measured: T/C

CC1Oc2[nH]c(=O)n(-c3ccc(Cl)cc3)c(=S)c2C1C (stereo not given)
inactive: dose: 12.5 mg/kg/injection, schedule: Q01DX001 (ip), vehicle: Klucel (hydroxypropylcellulose) (HPC) 100 % of control | dose: 25.0 mg/kg/injection, schedule: Q01DX001 (ip), vehicle: Klucel (hydroxypropylcellulose) (HPC) 102 % of control | dose: 50.0 mg/kg/injection, schedule: Q01DX001 (ip), vehicle: Klucel (hydroxypropylcellulose) (HPC) 101 % of control

CC1CCC2C(C)C(=O)OC2C2(C)C(=O)C=CC12 (stereo not given)
inactive: [1] 103 % of control | [2] 113 % of control | [3] 110 % of control

COc1cc(/C=C2\SC(=S)N(c3ccc(Cl)c(Cl)c3)C2=O)ccc1O
inactive: dose: 50.0 mg/kg/injection, schedule: Q01DX005 (ip), vehicle: Klucel (hydroxypropylcellulose) (HPC) 89 % of control | dose: 100.0 mg/kg/injection, schedule: Q01DX005 (ip), vehicle: Klucel (hydroxypropylcellulose) (HPC) 86 % of control | dose: 200.0 mg/kg/injection, schedule: Q01DX005 (ip), vehicle: Klucel (hydroxypropylcellulose) (HPC) 89 % of control

O=C(NC(CSSCC(NC(=O)c1ccc([N+](=O)[O-])cc1)C(=O)O)C(=O)O)c1ccc([N+](=O)[O-])cc1 (stereo not given)
inactive: [4] 108 % of control | [5] 101 % of control | [6] 109 % of control

COC(=O)C1=CCOc2c1c(C(=O)OC)nn2C
inactive: [4] 97 % of control | [5] 98 % of control | [6] 96 % of control

CC(=O)[O][Sn]([c]1ccccc1)([c]1ccccc1)[c]1ccccc1
inactive: dose: 0.25 mg/kg/injection, schedule: Q04DX003 (ip), vehicle: saline with Tween-80 104 % of control | dose: 0.5 mg/kg/injection, schedule: Q04DX003 (ip), vehicle: saline with Tween-80 109 % of control | dose: 125.0 micrograms/kg/injection, schedule: Q01DX009 (ip), vehicle: saline with Tween-80 100 % of control | dose: 250.0 micrograms/kg/injection, schedule: Q01DX009 (ip), vehicle: saline with Tween-80 109 % of control | dose: 500.0 micrograms/kg/injection, schedule: Q01DX009 (ip), vehicle: saline with Tween-80 109 % of control

COC(=O)c1ccc(C)c(N)c1
inactive: [4] 102 % of control | [5] 104 % of control | [6] 102 % of control

COC1C(C2CC(=O)NC(=O)C2)OC2OC(C)(C)OC21 (stereo not given)
inactive: [4] 104 % of control | [5] 107 % of control | [6] 104 % of control

CC(C)(CN)SCc1ccccc1
inactive: dose: 25.0 mg/kg/injection, schedule: Q01DX009 (ip), vehicle: saline 100 % of control | dose: 25.0 mg/kg/injection, schedule: Q04DX003 (ip), vehicle: saline 100 % of control | dose: 50.0 mg/kg/injection, schedule: Q01DX009 (ip), vehicle: saline 100 % of control | dose: 50.0 mg/kg/injection, schedule: Q04DX003 (ip), vehicle: saline 86 % of control | dose: 100.0 mg/kg/injection, schedule: Q01DX009 (ip), vehicle: saline 100 % of control | dose: 100.0 mg/kg/injection, schedule: Q04DX003 (ip), vehicle: saline 90 % of control

O=[N+]([O-])c1cnc(Sc2cncc[n+]2[O-])s1
inactive: dose: 1.56 mg/kg/injection, schedule: Q01DX009 (ip), vehicle: Klucel (hydroxypropylcellulose) (HPC) 100 % of control | dose: 3.12 mg/kg/injection, schedule: Q01DX009 (ip), vehicle: Klucel (hydroxypropylcellulose) (HPC) 93 % of control | dose: 6.25 mg/kg/injection, schedule: Q01DX009 (ip), vehicle: Klucel (hydroxypropylcellulose) (HPC) 102 % of control and 90 % of control

C=C(CCCCC)C(=O)/C=C/c1ccc(Cl)c(Cl)c1
inactive: dose: 6.25 mg/kg/injection, schedule: Q01DX009 (ip), vehicle: other 97 % of control | dose: 12.5 mg/kg/injection, schedule: Q01DX009 (ip), vehicle: other 107 % of control | dose: 25.0 mg/kg/injection, schedule: Q01DX009 (ip), vehicle: other 108 % of control | dose: 50.0 mg/kg/injection, schedule: Q01DX009 (ip), vehicle: other 109 % of control

C=C(C)C1CC=C(C)C(CCC2C(=C)CCC3C(C)(C)C(OC4OC(CO)C(O)C(O)C4NC(C)=O)CCC23C)C1(C)CCC(=O)O (stereo not given)
inactive: dose: 35.75 mg/kg/injection, schedule: Q01DX005 (ip), vehicle: Klucel (hydroxypropylcellulose) (HPC) 91 % of control | dose: 71.5 mg/kg/injection, schedule: Q01DX005 (ip), vehicle: Klucel (hydroxypropylcellulose) (HPC) 87 % of control | dose: 143.0 mg/kg/injection, schedule: Q01DX005 (ip), vehicle: Klucel (hydroxypropylcellulose) (HPC) 97 % of control

CCOc1n[n+]([O-])c(Cl)cc1[N+](=O)[O-]
inactive: [2] 103 % of control | [3] 102 % of control | [7] 100 % of control

CSC(C(C)=O)c1ccccc1 (stereo not given)
inactive: [2] 100 % of control | [3] 100 % of control | [7] 104 % of control

Oc1ccccc1CNCc1ccccc1O
inactive: [1] 100 % of control | [2] 100 % of control | [3] 108 % of control | [7] 98 % of control

CCCCCCCCN(CCCCCCCC)C(=N)c1ccnc2ccccc12
inactive: [8] 101 % of control | [9] 101 % of control | [10] 97 % of control | [4] 96 % of control

C/C=C(\C)C(=O)OC1C(C)C2(O)C(C=C(CO)CC3(O)C(=O)C(C)=CC32)C2C(C)(C)C12OC(=O)CCCCCCCCC (stereo not given)
inactive: dose: 0.13 mg/kg/injection, schedule: Q01DX009 (ip), vehicle: saline + alcohol 124 % of control | dose: 0.5 mg/kg/injection, schedule: Q01DX009 (ip), vehicle: saline + alcohol 124 % of control

O=C1OC(c2ccccc2)(c2ccccc2)CC12CC(c1ccccc1)(c1ccccc1)OC2=O
inactive: [4] 91 % of control | [5] 94 % of control

Cc1ccc(Cl)cc1NC(=O)Nc1nccs1
inactive: dose: 25.0 mg/kg/injection, schedule: Q01DX009 (ip), vehicle: Klucel (hydroxypropylcellulose) (HPC) 93 % of control | dose: 50.0 mg/kg/injection, schedule: Q01DX009 (ip), vehicle: Klucel (hydroxypropylcellulose) (HPC) 92 % of control | dose: 100.0 mg/kg/injection, schedule: Q01DX009 (ip), vehicle: Klucel (hydroxypropylcellulose) (HPC) 109 % of control

c1ccc2c3c(ccc2c1)OCN(C12CC4CC(CC(C4)C1)C2)C3
inactive: dose: 100.0 mg/kg/injection, schedule: Q04DX003 (ip), vehicle: saline with Tween-80 100 % of control | dose: 200.0 mg/kg/injection, schedule: Q04DX003 (ip), vehicle: saline with Tween-80 110 % of control | dose: 400.0 mg/kg/injection, schedule: Q04DX003 (ip), vehicle: saline with Tween-80 110 % of control

CCn1c2nc(=O)n(C)c(=O)c-2[n+]([O-])c2cc(C)ccc21
inactive: dose: 6.25 mg/kg/injection, schedule: Q04DX003 (ip), vehicle: saline with Tween-80 88 % of control | dose: 12.5 mg/kg/injection, schedule: Q04DX003 (ip), vehicle: saline with Tween-80 86 % of control | dose: 25.0 mg/kg/injection, schedule: Q04DX003 (ip), vehicle: saline with Tween-80 88 % of control | dose: 50.0 mg/kg/injection, schedule: Q04DX003 (ip), vehicle: saline with Tween-80 86 % of control

CCCCCCC(=O)CC(SCCO)c1ccccc1Cl (stereo not given)
inactive: dose: 60.0 mg/kg/injection, schedule: Q01DX005 (ip), vehicle: saline with Tween-80 92 % of control | dose: 120.0 mg/kg/injection, schedule: Q01DX005 (ip), vehicle: saline with Tween-80 107 % of control | dose: 240.0 mg/kg/injection, schedule: Q01DX005 (ip), vehicle: saline with Tween-80 114 % of control

CCCCN(CC(O)CNc1cc(OC)cc2cccnc12)C(C)CC (stereo not given)
inactive: [8] 95 % of control | [9] 91 % of control | [10] 100 % of control | dose: 25.0 mg/kg/injection, schedule: Q01DX005 (ip), vehicle: saline 92 % of control

N=C(N)c1ccc(C#Cc2ccc(C(=N)N)cc2)cc1
inactive: dose: 3.13 mg/kg/injection, schedule: Q01DX009 (ip), vehicle: saline with Tween-80 94 % of control | dose: 6.25 mg/kg/injection, schedule: Q01DX009 (ip), vehicle: saline with Tween-80 92 % of control | [1] 95 % of control
